B1: recombinant IL4: recombinant cytokine IL4 (Peprotech), control (protein, UniProt P05112 25-153, looked up)
Interleukin-4: HKCDITLQEIIKTLNSLTEQKTLCTELTVTDIFAASKNTTEKETFCRAATVLRQFYSHHEKDTRCLGATAQQFHRHKQLIRFLKRLDRNLWGLAGLNSCPVKEANQSTLENFLERLKTIMREKYSKCSS

How the values were obtained:
MYC-HCC = assay: Orthotopic MYC-HCC transplant in NSG mice treated with recombinant cytokines; format: in vivo, mouse; conditions: for macrophage infiltration increase: IHC staining for F4/80; for metastases (FC): single cytokine vs control, 4 weeks
Procedure: FIG. 5 Both CCL2 and IL13 are required to promote Twist1-driven metastasis. a. Experimental scheme- Mice orthotopically transplanted with MYC-HCC cells were treated either with PBS or IL13 or CCL2 or CCL2+IL13 recombinant cytokines for 4 weeks. b. Representative histopathology of lung sections from MYC-HCC bearing mice treated with PBS or CCL2+IL13. c. Histopathology of liver ([…]) of MYC-HCC bearing mice treated with PBS or CCL2 or IL13 or CCL2+IL13 and IHC for F4/80 and MYC expression in each group. d. Quantification of number of metastatic nodules in the liver control treated or recombinant cytokine treated MYC-HCC bearing mice. (**p<0.01). e. Quantification of macrophage infiltration in liver by IHC staining for F4/80 of MYC-HCC bearing mice liver treated with PBS or CCL2 or IL13 or CCL2+IL13. f. Histopathology of lung (1X and 20X) of MYC-HCC bearing mice treated with PBS or CCL2 or IL13 or CCL2+IL13 and IHC for F4/80 and MYC expression in each group. g. Quantification of number of metastatic nodules in the lung of control treated or recombinant cytokine treated MYC-HCC bearing mice. (**p<0.01). h. Quantification of macrophage infiltration in lung by IHC staining for F4/80 of MYC-HCC bearing mice liver treated with PBS or CCL2 or IL13 or CCL2+IL13.
Orthotopic transplantation assay: An orthotopic mouse model was established by transplanting mouse MYC- or MYC/Twist1-HCC tumors (1 mm^3) under the liver capsule of NOD/Scid/Gamma (NSG) recipient mice. Bioluminescent (BLI) and MRI scans monitoring are used to monitor tumor engraftment and growth. Mice are euthanized once predetermined specific endpoints are met or based on morbidity whichever occurs first.
in vivo treatment mouse models: For antibody treatment, mice were injected i.p. with isotype control IgG or anti-CCL2 (BioXcell), -IL13 and -IL4 (Genentech) antibody (10 mg/kg body weight three times per week). For recombinant cytokines treatment, mice were injected i.p. three times per week with PBS or CCL2 (Peprotech, 500 ng/mouse), IL13 and IL4 (Peprotech, 250 ng/mouse). For clodronate liposomes (CL) treatment, CL or control liposomes were administered i.p. at 6.5 µl/g body weight 3 times per week to NSGs mice. CL and control treatments were administered to NSG mice previously injected i.v. with 0.5×10^6 MYC/twist1-HCC cells or orthotopically transplanted with MYC/Twist1-HCC tumors. Experimental and control mice were killed 4 weeks after tumor were transplanted. Primary tumors and lung metastases were collected for H&E staining and IHC.

[1] = tested on: non-polarized macrophages; assay: Macrophage polarization by qPCR, MYC-HCC conditioned medium with recombinant cytokines; format: cell-based, mouse; conditions: recombinant cytokine added to cultured MYC-HCC cells
Procedure: FIG. 11. a. Quantification of migration of macrophages treated with MYC- or MYC/Twist1 -cells conditioned media. b. Expression of M1 marker genes in macrophages treated with conditioned media from MYC-HCC or MYC/Twist1-HCC. c. Spheroid co-culture assay of MYC/Twist1 -cells and macrophages after treatment with either CCL2 antibody or control antibody. F4/80 staining was performed to quantify number of spheroids with macrophage infiltration (*p<0.05). d. Experimental scheme- Conditioned medium of MYC-HCC cells treated with PBS or recombinant IL13 or CCL2 respectively was added to non-polarized macrophages for 48 hours. Macrophage polarization was assessed by qPCR for M2 markers (ARG1, […]) and M1 markers (IFNAR2, CCR2) (**p<0.005).
Quantitative Real-Time PCR: RNA was isolated using RNeasy plus mini kit according to the manufacturer’s instructions (Qiagen). cDNA was synthesized using SuperScript III (ThermoFisher). qPCR was performed using specific primers (Supplemental Table 1) and SYBR Green (Roche) in an Applied Biosystems Real Time PCR System (Life Technologies). Data were normalized to UBC. A minimum of 3 biological and 3 technical replicates were used for all qPCR experiments.

CCR2 chemokine receptor = target: T1, CCR2 chemokine receptor (Homo sapiens, UniProt P41597); conditions: cited from earlier work
T1 construct: endogenous in cells; host or cells: THP-1
T1 sequence (P41597 whole entry): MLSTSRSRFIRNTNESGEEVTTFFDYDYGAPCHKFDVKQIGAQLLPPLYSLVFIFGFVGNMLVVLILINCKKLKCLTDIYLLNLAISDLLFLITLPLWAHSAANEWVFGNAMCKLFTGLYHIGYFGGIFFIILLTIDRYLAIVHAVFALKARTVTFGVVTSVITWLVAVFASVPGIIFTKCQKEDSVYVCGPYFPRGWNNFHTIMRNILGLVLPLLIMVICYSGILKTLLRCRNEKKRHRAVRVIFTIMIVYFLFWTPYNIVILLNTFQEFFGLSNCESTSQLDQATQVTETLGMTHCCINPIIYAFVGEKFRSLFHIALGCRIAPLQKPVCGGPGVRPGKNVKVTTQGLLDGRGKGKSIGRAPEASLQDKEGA

| Molecule | macrophage infiltration increase (MYC-HCC) | metastases (FC) (MYC-HCC) | M2 marker expression [1] | IC50 (CCR2 chemokine receptor; THP-1 cell line, pre-clinical studies, read-out: IC50, inhibition of MCP-1 induced calcium mobilization and chemotaxis) [nM] | selectivity for CCR2 (CCR2 chemokine receptor) [fold] | effect on metastasis (MYC-HCC; mouse, in vivo) |
| --- | --- | --- | --- | --- | --- | --- |
| CCL2: recombinant cytokine CCL2 (Peprotech) | 1.8 fold | 3 | not | – | – | – |
| CC(C)(C)N1CCN[C@@H](C(=O)N2CCN(C(=O)Nc3ccc(Cl)c(F)c3)CC2)C1 [AZD2423] | – | – | – | 4 | > 500 | – |
| IL13: recombinant cytokine IL13 (Peprotech) | did not increase macrophage infiltration | 1 | increased M2 marker expression | – | – | – |
| B1 | did not elicit macrophage recruitment | – | – | – | – | did not elicit macrophage recruitment or increase metastasis |

Reference: patent US20230109697A1, “COMBINED ANTI-CYTOKINE THERAPY TO REDUCE METASTATIC CANCER” (The Board of Trustees of the Leland Stanford Junior …, priority 2020, published 2023)
